From patent US20240041042A1, “1-(PYRIDYL)-5-AZINYLPYRAZOLE DERIVATIVES, AND THEIR USE FOR CONTROL OF UNDESIRED PLANT GROWTH” (Bayer Aktiengesellschaft, priority 2020, published 2024)

Assays:
Format in all cases: in vivo
[1] = test system: Abutilon theophrasti (ABUTH); experiment: Pre-emergence herbicidal action against ABUTH; settings: 100% = plants have died
Method in brief: (§1)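 Read-out is visual percent damage relative to untreated pots, with 100% meaning dead plants and 0% meaning no difference, assessed roughly three weeks after treatment. Compounds were applied pre-emergence to the covering soil at up to 320 g/ha.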

[2] = test system: Alopecurus myosuroides (ALOMY); experiment: Pre-emergence herbicidal action against ALOMY; settings: scored visually after about 3 weeks, 100% = plants have died
Method in brief: as §1

[3] = test system: Amaranthus retroflexus (AMARE); experiment: Pre-emergence herbicidal action against AMARE; settings: visual scoring after about 3 weeks vs untreated controls
Method in brief: as §1

[4] = test system: Matricaria inodora (MATIN); experiment: Pre-emergence herbicidal action against MATIN
Method in brief: as §1

[5] = test system: Polygonum convolvulus (POLCO); experiment: Pre-emergence herbicidal action against POLCO
Method in brief: as §1

[6] = test system: Abutilon theophrasti (ABUTH); experiment: Post-emergence herbicidal action against ABUTH; settings: visual rating about 3 weeks after treatment vs untreated controls (100% = plants have died, 0% = like control plants)
Method in brief: (§2)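 Post-emergence greenhouse spray, one-leaf stage, 600 l/ha water plus 0.5% additive; WP or EC formulations; application rates 320 g/ha or lower. Visual % damage vs untreated controls at ~3 weeks.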

[7] = test system: Alopecurus myosuroides (ALOMY); experiment: Post-emergence herbicidal action against ALOMY; settings: visual rating about 3 weeks after treatment vs untreated controls (100% = plants have died, 0% = like control plants)
Method in brief: as §2

[8] = test system: Amaranthus retroflexus (AMARE); experiment: Post-emergence herbicidal action against AMARE
Method in brief: as §2

Lolium rigidum (LOLRI) = experiment: Post-emergence herbicidal action against LOLRI
Method in brief: as §2

[9] = test system: Polygonum convolvulus (POLCO); experiment: Post-emergence herbicidal action against POLCO
Method in brief: as §2

[10] = 80 g/ha, scored visually after about 3 weeks vs untreated controls, 0% = like control plants
[11] = Dosage column 320 g/ha (title prints 3200 g/ha), scored visually after about 3 weeks
[12] = 80 g/ha, visual rating about 3 weeks after treatment vs untreated controls (100% = plants have died, 0% = like control plants)
[13] = 320 g/ha, visual rating about 3 weeks after treatment

Row | Compound | Pre-emergence action against ABUTH [1, 10] | Pre-emergence action against ABUTH [1, 11] | Pre-emergence action against ALOMY ([2]; 80 g/ha) | Pre-emergence action against ALOMY ([2]; 320 g/ha) | Pre-emergence action against AMARE in % ([3]; 80 g/ha) | Pre-emergence action against AMARE in % ([3]; 320 g/ha) | Pre-emergence action against MATIN in % ([4]; dosage 80 g/ha) | Pre-emergence action against MATIN in % ([4]; dosage 320 g/ha) | Pre-emergence action against POLCO in % ([5]; dosage 80 g/ha) | Pre-emergence action against POLCO in % ([5]; dosage 320 g/ha) | Post-emergence action against ABUTH in % ([6]; 80 g/ha) | Post-emergence action against ABUTH in % ([6]; 320 g/ha) | Post-emergence action against ALOMY in % ([7]; 320 g/ha) | Post-emergence action against AMARE in % [8, 12] | Post-emergence action against AMARE in % [8, 13] | Post-emergence action against LOLRI in % (Lolium rigidum (LOLRI); dosage 80 g/ha) | Post-emergence action against LOLRI in % (Lolium rigidum (LOLRI); dosage 320 g/ha) | Post-emergence action against POLCO in % ([9]; dosage 320 g/ha) | Post-emergence action against ALOMY in % ([7]; 80 g/ha) | Post-emergence action against POLCO in % ([9]; dosage 80 g/ha)
1 | C[C@@H](Oc1nn(-c2ccccn2)c(-c2cncc(F)c2)c1Cl)C(=O)O [Example I-218] | 80% | 90% | 90% | 90% | 100% | 100% | 90% | 100% | 90% | 90% | 80% | 80% | 90% | 80% | 80% | 80% | 90% | 80% |  | 
2 | COC(=O)[C@@H](C)Oc1nn(-c2ncccc2F)c(-c2ccc(F)nc2)c1Br [Example I-05, Methyl (2R)-2-{[4-bromo-1-(3-fluoropyridin-2-yl)-5-(6-fluoropyridin-3-yl)-1H-pyrazol-3-yl]oxy}propanoate] |  | 80% | 90% | 100% | 90% | 100% |  | 90% | 90% | 90% | 80% | 80% | 100% | 90% | 90% |  | 90% | 90% | 90% | 90%
3 | COCCOC(=O)COc1nn(-c2ncccc2C)c(-c2cncc(F)c2)c1Br [Example I-212] |  | 80% | 100% | 100% | 90% | 100% | 80% | 90% | 90% | 90% | 80% | 80% | 90% |  | 80% |  | 80% | 90% | 90% | 80%
4 | COC(=O)C(C)COC(=O)[C@@H](C)Oc1nn(-c2ccccn2)c(-c2cncc(F)c2)c1Br (some centres unmarked) [Example I-188] | 80% | 90% | 90% | 100% | 100% | 100% | 90% | 90% | 90% | 90% | 80% | 80% | 90% |  | 80% | 90% | 90% | 80% | 80% | 80%
5 | COC(=O)[C@@H](C)Oc1nn(-c2ncccc2F)c(-c2ccc(F)nc2)c1C1CC1 [Example I-307] |  | 80% | 80% | 90% | 100% | 100% | 90% | 100% | 90% | 100% |  | 90% | 100% | 80% | 90% | 100% | 100% | 80% | 100% | 80%
6 | C[C@@H](Oc1nn(-c2ncccc2F)c(-c2ccc(F)nc2)c1C1CC1)C(=O)O [Example I-342] |  | 90% | 100% | 100% | 100% | 100% | 100% | 100% | 90% | 100% | 80% | 90% | 100% | 90% | 90% | 90% | 90% | 90% | 100% | 80%
7 | O=C(O)COc1nn(-c2ncccc2F)c(-c2ccc(F)nc2)c1Br [Example I-08] |  | 80% | 100% | 100% | 100% | 100% |  | 100% | 80% | 100% | 80% | 90% | 100% | 80% | 90% |  | 90% | 90% | 100% | 90%
8 | COC(=O)[C@@H](C)Oc1nn(-c2nc(F)ccc2F)c(-c2cncc(F)c2)c1C1CC1 [Example I-171] |  | 90% | 100% | 100% | 100% | 100% | 90% | 90% | 90% | 90% |  | 90% | 90% | 80% | 80% | 80% | 90% | 90% | 90% | 80%
9 | COCCOC(=O)COc1nn(-c2ccccn2)c(-c2ccc(F)nc2)c1Br [Example I-96] |  | 80% | 80% | 100% | 90% | 100% |  | 100% | 90% | 90% | 90% | 90% | 90% | 80% | 80% | 90% | 90% | 80% | 90% | 80%
10 | COC(=O)[C@@H](C)Oc1nn(-c2ncccc2F)c(-c2ccc(F)nc2)c1I [Example I-341] | 90% | 90% |  | 100% | 100% | 100% | 90% | 100% | 90% | 100% | 80% | 90% | 100% | 80% | 80% | 90% | 90% | 80% | 80% | 80%
11 | COC(=O)CNC(=O)[C@@H](C)Oc1nn(-c2ccccn2)c(-c2cncc(F)c2)c1Br [Example I-187] | 80% | 90% | 90% | 100% | 80% | 100% | 90% | 90% | 90% | 90% |  | 80% | 90% |  |  | 90% | 90% | 80% |  | 80%
12 | C[C@@H](Oc1nn(-c2ncccc2F)c(-c2ccc(F)nc2)c1Br)C(=O)O [Example I-10] |  | 80% | 100% | 100% | 100% | 100% | 80% | 100% | 100% | 100% |  | 80% | 100% |  |  | 90% | 90% | 80% | 100% | 80%
